The nature of data set [1]: Metabolic stability in pooled human liver microsomes assessed as half-life at 1 uM preincubated with compound followed by NADPH addition and measured upto 45 mins by LC-MS/MS analysis. In kind it is ADME, Microsome. A general note: Liver microsomes are vesicles of endoplasmic reticulum, rich in cytochrome P450 enzymes.
Data set [2] can be described thus: Metabolic stability in pooled human liver microsomes assessed as intrinsic clearance at 1 uM preincubated with compound followed by NADPH addition and measured upto 45 mins by LC-MS/MS analysis. In kind it is ADME, Microsome. As to conditions: read-out: CLH.

With `[2H]C([2H])([2H])C([2H])([2H])N(C(=O)[C@@H]1C=C2c3cccc4[nH]cc(c34)C[C@H]2N(C)C1)C([2H])([2H])C([2H])([2H])[2H]`, in data set [1], the half-life at 1 µM was 80.8 min. Also, the microsomal CLint at 1 µM in data set [2] worked out at 17.2 µL/min/mg.
Take `[2H]c1c([2H])c2c3c(c(Br)[nH]c3c1[2H])C[C@@H]1C2=C[C@@H](C(=O)N(CC)CC)CN1C`: in data set [1], the half-life at 1 µM came to 26.3 min. For the same molecule, the microsomal CLint at 1 µM in data set [2] came out at 52.6 µL/min/mg.
Consider `CCN(CC)C(=O)[C@@H]1C=C2c3cccc4[nH]c(Br)c(c34)C[C@H]2N(C)C1`, for which the half-life at 1 µM in data set [1] is 24.6 min. In addition, the microsomal CLint at 1 µM in data set [2] is 56.3 µL/min/mg.
As to `[2H]C([2H])([2H])N1C[C@H](C(=O)N(CC)CC)C=C2c3cccc4[nH]c(Br)c(c34)C[C@H]21`, the half-life at 1 µM in data set [1] is 28.1 min. Besides, the microsomal CLint at 1 µM in data set [2] was found to be 49.4 µL/min/mg.
For the molecule `[2H]c1[nH]c2c([2H])c([2H])c([2H])c3c2c1C[C@@H]1C3=C[C@@H](C(=O)N(CC)CC)CN1C`, the half-life at 1 µM in data set [1] amounted to 82.8 min. Further, the microsomal CLint at 1 µM in data set [2] is 16.7 µL/min/mg.
With `[2H]C([2H])([2H])N1C[C@H](C(=O)N(C([2H])([2H])C([2H])([2H])[2H])C([2H])([2H])C([2H])([2H])[2H])C=C2c3cccc4[nH]c(Br)c(c34)C[C@H]21`, the half-life at 1 µM in data set [1] stood at 35.7 min. Moreover, the microsomal CLint at 1 µM in data set [2] was determined as 38.8 µL/min/mg.
For the molecule `[2H]c1[nH]c2cccc3c2c1C[C@@H]1C3=C[C@@H](C(=O)N(CC)CC)CN1C`, the half-life at 1 µM in data set [1] worked out at 77.7 min. Besides, in data set [2], the microsomal CLint at 1 µM came out at 17.8 µL/min/mg.
As for `[2H]C([2H])([2H])C([2H])([2H])N(C(=O)[C@@H]1C=C2c3cccc4[nH]c(Br)c(c34)C[C@H]2N(C)C1)C([2H])([2H])C([2H])([2H])[2H]`, the half-life at 1 µM in data set [1] was 31.1 min. Further, the microsomal CLint at 1 µM in data set [2] was 44.6 µL/min/mg.

Broadly, the half-life is how long it takes for the measured level to halve.

Source of the values: ChEMBL document CHEMBL5357025, “Perceptual Modifying Compounds and Their Potential Therapeutic Applications in Neuropsychiatric Disorders” (ACS Med Chem Lett, 2024).
